Source: paper PMC7936271, “Discovery and characterization of bromodomain 2–specific inhibitors of BRDT” (Proceedings of the National Academy of Sciences of the …, 2021)
pIC50, pKd: −log10 of the molar value. Values joined by “and” are separate entries in the source; they are usually repeats but may differ in a detail not shown here. Equal values may be shown once.

How the values were obtained:
[1] = Metabolic stability assay in mouse liver microsomes; format: in vitro ADME; details: for half-life at 2 μM: read-out: t1/2, min MLM
Procedure: (§1) 2d) Metabolic stability assay in liver microsomes. […]
(§2) The reactions are terminated by adding equivalent
(§3) volume of ice-cold CH3OH and vortexed.
(§4) temperature was ma i ntained at 40 °C.
(§5) (acetonitrile containing 0.1% formic acid). […]

[2] = test system: various bromodomains; test: BROMOscan bromodomain profiling on various bromodomains; format: binding; details: result in words
Procedure: 2a) Bromodomain proximity assay. The AlphaScreenTM assay was performed following previous […]
The plate was read on a Tecan Infinite […]
the protein thermal shift assay.
Orange dye at 5 × in a 10- µL reaction.
Lightcycler 480 real-time PCR instrument.
2c) NanoBRET target engagement intracellular BET bromodomain assay. The NanoLuc -BRDT-BD1 […]
(Promega, USA) to replace the corresponding BRD4 bromodomain sequences. The NanoBRET tracer […]
The cells were then preincubated with tested
2d) Metabolic stability assay in liver microsomes. Compounds 3–10, 15, 17 and 20–2 2 (2.0 μM) were incubated in the mouse or human liver microsomes (0.5 mg protein/mL) at 37 °C. The samples are collected […]
The reactions are terminated by adding equivalent volume of ice-cold CH3OH and vortexed. […]
as §4
(acetonitrile containing 0.1% formic acid).
2e) BROMOscan bromodomain profiling. BROMOscan bromodomain profiling was provided by […]
against a proprietary reference immobilized ligand.

[3] = Metabolic stability assay in human liver microsomes; format: in vitro ADME; details: for half-life at 2 μM: read-out: t1/2, min HLM
Procedure: as §1, §2, §3, §4, §5

[4] = molecular target: T1, BRD4-BD2 (Homo sapiens, UniProt O60885); test: BROMOscan BromoKdELECT competition binding, BRD4-BD2; parameters: purchased Eurofins DiscoverX Corp; details: BromoKdELECT dose-response; read-out: Binding Constants (Kd), nM BRD4-BD2
[5] = molecular target: T2, BRDT-BD1 (Homo sapiens, UniProt Q58F21); test: AlphaScreen competition assay with biotinylated JQ1, BRDT-BD1; format: binding; details: AlphaScreen, biotinylated JQ1 as ligand; NE: no effect at 20 µM
T2 construct: NP_001717.3 amino acid 21− 137; made in house; host or cells: E. coli NiCo21 (DE3)

[6] = molecular target: BRD4-BD1
[7] = molecular target: BRD4-BD2
[8] = molecular target: BRD4-BD2; remark: listed apart in the source
[9] = molecular target: T3, BRD3-BD2 (Homo sapiens, UniProt Q15059); test: BROMOscan BromoKdELECT competition binding, BRD3-BD2; details: BromoKdELECT dose-response; read-out: Binding Constants (Kd), nM BRD3-BD2
T3 construct: purchased Eurofins DiscoverX Corp
T3 sequence (Q15059 306-415 limits assumed): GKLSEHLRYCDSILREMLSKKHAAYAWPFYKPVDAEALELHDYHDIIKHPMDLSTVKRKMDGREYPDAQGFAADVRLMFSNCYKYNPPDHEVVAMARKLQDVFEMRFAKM

[10] = molecular target: T4, BRD2-BD2 (Homo sapiens, UniProt P25440); test: BROMOscan BromoKdELECT competition binding, BRD2-BD2; details: BromoKdELECT dose-response; read-out: Binding Constants (Kd), nM BRD2-BD2
T4 construct: purchased Eurofins DiscoverX Corp
T4 sequence (P25440 344-453 limits assumed): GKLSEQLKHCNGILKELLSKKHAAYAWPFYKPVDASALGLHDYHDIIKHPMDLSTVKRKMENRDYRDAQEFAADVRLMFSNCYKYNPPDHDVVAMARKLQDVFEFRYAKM

[11] = molecular target: BRD3-BD2
[12] = molecular target: T1, BRD4-BD2; test: AlphaScreen competition assay with biotinylated JQ1, BRD4-BD2; format: binding; parameters: BD2, NP_055114.1 amino acid 333− 460; made in house; host or cells: E. coli NiCo21 (DE3)
[13] = molecular target: T5, BRDT-BD2 (Homo sapiens, UniProt Q58F21); test: BROMOscan BromoKdELECT competition binding, BRDT-BD2; parameters: purchased Eurofins DiscoverX Corp
[14] = molecular target: BRDT-BD1
[15] = molecular target: T6, BRD4-BD1 (Homo sapiens, UniProt O60885); test: AlphaScreen competition assay with biotinylated JQ1, BRD4-BD1; format: binding; details: AlphaScreen, biotinylated JQ1 as ligand; NE: no effect at 20 µM
T6 construct: amino acid 44− 168; made in house; host or cells: E. coli NiCo21 (DE3)

[16] = molecular target: BRD2-BD2
[17] = molecular target: BRDT-BD2
[18] = molecular target: T5, BRDT-BD2; test: AlphaScreen competition assay with biotinylated JQ1, BRDT-BD2; format: binding; parameters: BRDT-BD2, NP_001717.3 amino acid 269− 380; made in house; host or cells: E. coli NiCo21 (DE3); details: for BRDT-BD2 vs. BRD4-BD2: ratio of AlphaScreen IC50 values
[19] = molecular target: BRDT-BD2; remark: listed apart in the source
[20] = test system: BD2; parameters: method as in PMID 32193360; details: BD2-specific inhibitor; cited from earlier work
[21] = test system: BRD4-BD1; remark: listed apart in the source
[22] = mice; cited from earlier work
[23] = test system: BRD4-BD2; remark: listed apart in the source
[24] = test system: BRDT-BD1; remark: listed apart in the source
[25] = test system: BRDT-BD2; remark: listed apart in the source
[26] = mouse liver microsomes, 2.0 μM, 37 °C, data >60 min are an extrapolated estimate
[27] = human liver microsomes, 2.0 μM, 37 °C, data >60 min are an extrapolated estimate
[28] = AlphaScreen, biotinylated JQ1 as ligand

With `CNC(=O)c1ccc(C(=O)Nc2cc(NC(=O)c3ccc4c(c3)c(-c3ccc(N)cc3C)nn4C)ccc2C)cc1` [Compound 9] the half-life at 2 μM [1, 26] was 1.53 h, the mouse microsomal stability ([1]; result in words) was “greater stability in mouse liver microsomes (MLMs) over other hits” and the BROMOscan bromodomain profile [2] was “very weak binding to two bromodomains outside of the BET subfamily”. The half-life at 2 μM [3, 27] was 2.5 h and the human microsomal stability ([3]; result in words) was “high metabolic stability”.
With `CC(=O)Nc1cc(NC(=O)c2ccc3c(c2)c(-c2ccc(N)cc2C)nn3C)ccc1C` [Compound 20] the Kd [4] was 1.6 nM, the “t1/2, min MLM” value [1, 26] was 1.2 h and the IC50 [5] was 15800 nM. The pIC50 [6] was 4.98, the pIC50 [7] was 7.92 and the pKd [8] was 8.80. For the same molecule, the Kd [9] was 2 nM, the Kd [10] was 7.8 nM and the pKd [11] was 8.70. The “BRD4-BD2 vs. BRD4-BD1 (BRD4-BD2 selectivity)” value [12] was 860, the IC50 [12, 28] was 12 nM and the BROMOscan bromodomain profile [2] was “potent and selective binding to only the second bromodomains within the BET subfamily”. For the same molecule, the “more potent than JQ1 at binding BRDT-BD2” value ([13]; BromoKdELECT dose-response curves) was “more than 20 fold”, the Kd ([13]; BromoKdELECT dose-response, read-out: Binding Constants (Kd), nM BRDT-BD2) was 1.3 nM and the pIC50 [14] was < 5.00 and 4.80. It also gave an IC50 [15] of 10400 nM, a pKd [16] of 8.11 and a pKd [17] of 8.89. The “t1/2, min HLM” value [3, 27] was 6.17 h, the “BRDT-BD2 vs. BRDT-BD1 (BRDT-BD2 selectivity)” value [18] was 2,000 and the IC50 [18, 28] was 8 nM. The “BRDT-BD2 activity / affinity” value ([18]; AlphaScreen, result in words) was “no loss in activity”, the “BRDT-BD2 vs. BRD4-BD2” value [18] was 1.5 and the pIC50 [19] was 8.10.
In the case of `CC(=O)Nc1c(F)cc(C(=O)N[C@H]2CC[C@H](O)CC2)cc1O[C@@H](C)c1ccccc1` [GSK046], the “selectivity over BD1” value [20] is given as greater than 300 fold.
In the case of `Cc1sc2c(c1C)C(c1ccc(Cl)cc1)=N[C@@H](CC(=O)OC(C)(C)C)c1nnc(C)n1-2` [JQ1, reference compound], the half-life at 2 μM [1, 26] is given as 0.25 h, the ΔTm at 25 µM [21] is given as 7.84 °C and the “bioavailable across the blood-testis boundary” value [22] is given as 100%. For the same molecule, the ΔTm at 25 µM [23] was 7.43 °C, the ΔTm at 25 µM [24] was 3.48 °C and the ΔTm at 25 µM [25] was 10.3 °C. For the same molecule, the half-life at 2 μM [3, 27] was 0.1 h and the “BRDT-BD2 vs. BRD4-BD2” value [18] was 0.4.
